Test system: Huh-7
Assay: Cytotoxicity against human HuH7 cells expressing positive EpCAM/CD133 assessed as reduction in cell viability measured after 24 hrs by MTT assay
Assay type: functional, cell-based
Conditions: Huh-7, 24 h

Cc1ccc([C@H]2CC=CC(=O)O2)c2ccccc12
IC50: 10 µM

Reference: ChEMBL document CHEMBL4359853, “Antiproliferative activity of (R)-4'-methylklavuzon on hepatocellular carcinoma cells and EpCAM+/CD133+ cancer stem cells via SIRT1 and Exportin-1 (CRM1) inhibition” (Eur J Med Chem, 2019)
